Test results reported in publication PMC7932537, “Quantitative profiling of protease specificity” (PLoS Computational Biology, 2021).

Key:
[1] = system: MMP-2; assay: Substrate phage display with NGS: relative probability (RP) of P3-P1' tetramer clusters; format: biochemical, human; details: MMP2;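 note: ratio of tetramer probability after protease selection to that in naive phage library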
[2] = target: T1, MMP-2 (Homo sapiens, UniProt P08253); assay: K(obs) of individual phage substrates (set of 1369); format: biochemical; details: MMP2
T1 sequence (P08253 110-660): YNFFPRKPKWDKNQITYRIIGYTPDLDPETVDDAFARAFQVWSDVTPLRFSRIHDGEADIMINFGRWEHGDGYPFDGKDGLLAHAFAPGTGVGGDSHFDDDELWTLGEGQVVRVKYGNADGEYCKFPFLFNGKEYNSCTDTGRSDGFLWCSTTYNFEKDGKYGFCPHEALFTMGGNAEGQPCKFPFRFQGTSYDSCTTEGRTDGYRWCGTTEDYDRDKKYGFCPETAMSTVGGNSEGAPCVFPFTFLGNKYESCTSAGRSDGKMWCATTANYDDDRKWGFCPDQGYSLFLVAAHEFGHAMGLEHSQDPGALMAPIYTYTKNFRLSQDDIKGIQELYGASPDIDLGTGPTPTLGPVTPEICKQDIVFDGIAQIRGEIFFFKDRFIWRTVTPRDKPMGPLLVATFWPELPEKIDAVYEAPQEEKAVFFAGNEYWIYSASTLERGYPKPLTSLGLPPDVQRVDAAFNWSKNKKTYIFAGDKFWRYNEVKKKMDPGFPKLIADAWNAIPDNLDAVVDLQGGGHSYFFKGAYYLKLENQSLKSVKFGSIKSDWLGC

[3] = target: MMP-9 (Homo sapiens, UniProt P14780); assay: as above; format: biochemical; details: MMP9
[4] = RP of the P3-P1' tetramer contained in the substrate (substrate phage display with NGS)
[5] = individual phage substrates, set of 1369 peptides, cleavage position marked by hyphen in sequence
[6] = individual phage substrates, set of 1369 peptides, hyphen in sequence marks cleavage position
[7] = RP of the P3-P1' tetramer contained in the substrate
[8] = individual phage substrate of the set of 1369 peptides, cleavage position marked by '-'
[9] = individual phage substrate of the set of 1369 peptides, dash in the sequence marks the cleavage position

Chain of MMP-9 (P14780 94-707): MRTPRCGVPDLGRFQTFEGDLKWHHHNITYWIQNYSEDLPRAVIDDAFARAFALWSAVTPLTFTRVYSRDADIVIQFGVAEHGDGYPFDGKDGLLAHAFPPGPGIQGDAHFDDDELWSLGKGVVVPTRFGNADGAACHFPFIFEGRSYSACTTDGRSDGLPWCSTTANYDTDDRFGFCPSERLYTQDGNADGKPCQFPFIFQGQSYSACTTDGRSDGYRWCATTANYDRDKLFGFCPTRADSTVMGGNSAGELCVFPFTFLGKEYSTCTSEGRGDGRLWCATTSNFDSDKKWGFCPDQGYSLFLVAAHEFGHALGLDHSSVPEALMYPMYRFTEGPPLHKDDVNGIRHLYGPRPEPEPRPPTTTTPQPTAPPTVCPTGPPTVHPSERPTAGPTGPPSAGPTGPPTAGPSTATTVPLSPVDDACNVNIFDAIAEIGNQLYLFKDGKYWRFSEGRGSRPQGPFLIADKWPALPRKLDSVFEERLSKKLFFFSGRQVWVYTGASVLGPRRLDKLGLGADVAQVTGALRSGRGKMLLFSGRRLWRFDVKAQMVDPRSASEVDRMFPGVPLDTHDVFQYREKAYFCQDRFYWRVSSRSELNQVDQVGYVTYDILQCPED

Q: For ETMLA-LTASG, which “relative probability (RP)” value [1, 4] is on record?
A: 5.6722

Q: What about the “Kobs” value [2, 5] of the same substance?
A: 484.315 M⁻¹ s⁻¹

Q: What about the “Kobs” value [3, 6] of the same substance?
A: 0 M⁻¹ s⁻¹

Q: With EVARA-MTASG as the substance, how does the “relative probability (RP)” value [1, 7] read?
A: 25.2992

Q: What about the Kobs [2, 8] of the same substance?
A: 7015.91 M⁻¹ s⁻¹

Q: And the “Kobs” value [3, 9]?
A: 5090.5 M⁻¹ s⁻¹

Q: With EVARA-WTASG as the substance, how does the “relative probability (RP)” value [1, 4] read?
A: 17.4628

Q: And the “Kobs” value [2, 5]?
A: 7386.83 M⁻¹ s⁻¹

Q: What about the “Kobs” value [3, 6] of the same substance?
A: 1513.13 M⁻¹ s⁻¹

Q: With FDAQS-LTASG as the substance, how does the “relative probability (RP)” value [1, 7] read?
A: 18.365

Q: What about the Kobs [2, 8] of the same substance?
A: 1711.63 M⁻¹ s⁻¹

Q: What about the “Kobs” value [3, 9] of the same substance?
A: 874.197 M⁻¹ s⁻¹

Q: For FDISH-LTASG, which “relative probability (RP)” value [1, 4] is on record?
A: 30.7015

Q: And the “Kobs” value [2, 5]?
A: 10866.7 M⁻¹ s⁻¹

Q: What about the “Kobs” value [3, 6] of the same substance?
A: 171.876 M⁻¹ s⁻¹

Q: How did the “relative probability (RP)” value [1, 7] turn out when FGPYA-MTASG was run?
A: 28.0901

Q: And the Kobs [2, 8]?
A: 1870.4 M⁻¹ s⁻¹

Q: And the “Kobs” value [3, 9]?
A: 12792.1 M⁻¹ s⁻¹

Q: How did the “relative probability (RP)” value [1, 7] turn out when FMPRN-TASGA was run?
A: 2.5391

Q: And the Kobs [2, 8]?
A: 2837.92 M⁻¹ s⁻¹

Q: What about the “Kobs” value [3, 9] of the same substance?
A: 12792.1 M⁻¹ s⁻¹

Q: FMPSA-QTASG was tested. Which “relative probability (RP)” value [1, 7] did it give?
A: 28.0379

Q: And the Kobs [2, 8]?
A: 10866.7 M⁻¹ s⁻¹

Q: And the “Kobs” value [3, 9]?
A: 9740.44 M⁻¹ s⁻¹

Q: For FNPIH-LTASG, which “relative probability (RP)” value [1, 7] is on record?
A: 26.4106

Q: What about the Kobs [2, 8] of the same substance?
A: 12792.1 M⁻¹ s⁻¹

Q: What about the “Kobs” value [3, 9] of the same substance?
A: 10866.7 M⁻¹ s⁻¹

Q: Which “relative probability (RP)” value [1, 7] does the source give for FPGRH-LTASG here?
A: 3.598

Q: What about the Kobs [2, 8] of the same substance?
A: 1239.69 M⁻¹ s⁻¹

Q: What about the “Kobs” value [3, 9] of the same substance?
A: 484.315 M⁻¹ s⁻¹

Q: With FPVLS-LTASG as the substance, how does the “relative probability (RP)” value [1, 4] read?
A: 10.8506

Q: And the “Kobs” value [2, 5]?
A: 10866.7 M⁻¹ s⁻¹

Q: What about the “Kobs” value [3, 6] of the same substance?
A: 6396.07 M⁻¹ s⁻¹

Q: With FQFEH-LTASG as the substance, how does the “relative probability (RP)” value [1, 4] read?
A: 1.21

Q: And the “Kobs” value [2, 5]?
A: 874.197 M⁻¹ s⁻¹

Q: What about the “Kobs” value [3, 6] of the same substance?
A: 113.394 M⁻¹ s⁻¹

Q: Which results are given for FSARS-LTASG?
A: relative probability (RP) [1, 4]: 17.186; Kobs [2, 5]: 8941.32 M⁻¹ s⁻¹; Kobs [3, 6]: 4613.14 M⁻¹ s⁻¹

Q: Which results are given for FSLRQ-MTASG?
A: relative probability (RP) [1, 4]: 8.677; Kobs [2, 5]: 990.764 M⁻¹ s⁻¹; Kobs [3, 6]: 690.17 M⁻¹ s⁻¹

Q: For FSQLA-MTASG, which “relative probability (RP)” value [1, 4] is on record?
A: 5.241

Q: And the “Kobs” value [2, 5]?
A: 0 M⁻¹ s⁻¹

Q: And the “Kobs” value [3, 6]?
A: 0 M⁻¹ s⁻¹

Q: For FVVRA-LTASG, which “relative probability (RP)” value [1, 7] is on record?
A: 30.4312

Q: And the Kobs [2, 8]?
A: 9740.44 M⁻¹ s⁻¹

Q: What about the “Kobs” value [3, 9] of the same substance?
A: 12792.1 M⁻¹ s⁻¹

Q: GAAHG-IFTAS was tested. Which “relative probability (RP)” value [1, 7] did it give?
A: 8.881

Q: And the Kobs [2, 8]?
A: 690.17 M⁻¹ s⁻¹

Q: What about the “Kobs” value [3, 9] of the same substance?
A: 261.974 M⁻¹ s⁻¹

Q: Which “relative probability (RP)” value [1, 7] does the source give for GAFRH-LRTAS here?
A: 3.942

Q: What about the Kobs [2, 8] of the same substance?
A: 201.585 M⁻¹ s⁻¹

Q: And the “Kobs” value [3, 9]?
A: 0 M⁻¹ s⁻¹

Q: How did the “relative probability (RP)” value [1, 7] turn out when GAPMN-VVTAS was run?
A: 12.9651

Q: And the Kobs [2, 8]?
A: 5889.62 M⁻¹ s⁻¹

Q: What about the “Kobs” value [3, 9] of the same substance?
A: 12792.1 M⁻¹ s⁻¹

Q: Which “relative probability (RP)” value [1, 7] does the source give for GAPRF-LSTAS here?
A: 28.4443

Q: What about the Kobs [2, 8] of the same substance?
A: 12792.1 M⁻¹ s⁻¹

Q: And the “Kobs” value [3, 9]?
A: 12792.1 M⁻¹ s⁻¹

Q: For GAPRS-LQTAS, which “relative probability (RP)” value [1, 7] is on record?
A: 33.3704

Q: What about the Kobs [2, 8] of the same substance?
A: 12792.1 M⁻¹ s⁻¹

Q: And the “Kobs” value [3, 9]?
A: 12792.1 M⁻¹ s⁻¹

Q: GAPRS-LVTAS was tested. Which “relative probability (RP)” value [1, 7] did it give?
A: 33.3704

Q: What about the Kobs [2, 8] of the same substance?
A: 12792.1 M⁻¹ s⁻¹

Q: And the “Kobs” value [3, 9]?
A: 12792.1 M⁻¹ s⁻¹

Q: Which “relative probability (RP)” value [1, 7] does the source give for GAPWG-IHTAS here?
A: 25.1508

Q: And the Kobs [2, 8]?
A: 12792.1 M⁻¹ s⁻¹

Q: And the “Kobs” value [3, 9]?
A: 12792.1 M⁻¹ s⁻¹

Q: For GAWHN-MRTAS, which “relative probability (RP)” value [1, 4] is on record?
A: 0

Q: What about the “Kobs” value [2, 5] of the same substance?
A: 0 M⁻¹ s⁻¹

Q: And the “Kobs” value [3, 6]?
A: 0 M⁻¹ s⁻¹

Q: Which results are given for GCPHM-MTASG?
A: relative probability (RP) [1, 4]: 14.968; Kobs [2, 5]: 654.784 M⁻¹ s⁻¹; Kobs [3, 6]: 1327.88 M⁻¹ s⁻¹

Q: What does the source list for GCPLS-LYTAS?
A: relative probability (RP) [1, 4]: 33.5282; Kobs [2, 5]: 4335.13 M⁻¹ s⁻¹; Kobs [3, 6]: 6688.74 M⁻¹ s⁻¹

Q: Which results are given for GCVRF-LQTAS?
A: relative probability (RP) [1, 7]: 15.0438; Kobs [2, 8]: 1239.69 M⁻¹ s⁻¹; Kobs [3, 9]: 1071.29 M⁻¹ s⁻¹

Q: GDMRH-LSTAS was tested. Which “relative probability (RP)” value [1, 4] did it give?
A: 14.413

Q: What about the “Kobs” value [2, 5] of the same substance?
A: 1561.44 M⁻¹ s⁻¹

Q: And the “Kobs” value [3, 6]?
A: 799.117 M⁻¹ s⁻¹

Q: Which “relative probability (RP)” value [1, 7] does the source give for GDPYG-MRTAS here?
A: 27.2726

Q: And the Kobs [2, 8]?
A: 3850.82 M⁻¹ s⁻¹

Q: What about the “Kobs” value [3, 9] of the same substance?
A: 4922.1 M⁻¹ s⁻¹

Q: Which “relative probability (RP)” value [1, 7] does the source give for GDPYS-LRTAS here?
A: 30.7259

Q: And the Kobs [2, 8]?
A: 4922.1 M⁻¹ s⁻¹

Q: What about the “Kobs” value [3, 9] of the same substance?
A: 12792.1 M⁻¹ s⁻¹

Q: GEFAA-LQTAS was tested. Which “relative probability (RP)” value [1, 4] did it give?
A: 18.8584

Q: And the “Kobs” value [2, 5]?
A: 2615.58 M⁻¹ s⁻¹

Q: And the “Kobs” value [3, 6]?
A: 323.705 M⁻¹ s⁻¹

Q: GEFRS-MRTAS was tested. Which “relative probability (RP)” value [1, 4] did it give?
A: 5.389

Q: And the “Kobs” value [2, 5]?
A: 1763.55 M⁻¹ s⁻¹

Q: What about the “Kobs” value [3, 6] of the same substance?
A: 0 M⁻¹ s⁻¹

Q: For GEPNY-LKTAS, which “relative probability (RP)” value [1, 4] is on record?
A: 17.2533

Q: And the “Kobs” value [2, 5]?
A: 2687.73 M⁻¹ s⁻¹

Q: What about the “Kobs” value [3, 6] of the same substance?
A: 1239.69 M⁻¹ s⁻¹

Q: For GEVFS-LTASG, which “relative probability (RP)” value [1, 7] is on record?
A: 9.631

Q: What about the Kobs [2, 8] of the same substance?
A: 585.336 M⁻¹ s⁻¹

Q: What about the “Kobs” value [3, 9] of the same substance?
A: 951.362 M⁻¹ s⁻¹

Q: Which “relative probability (RP)” value [1, 7] does the source give for GEVRF-LRTAS here?
A: 15.0438

Q: What about the Kobs [2, 8] of the same substance?
A: 9740.44 M⁻¹ s⁻¹

Q: What about the “Kobs” value [3, 9] of the same substance?
A: 2837.92 M⁻¹ s⁻¹
